Assay results reported in PMC9719540, “Synthesis of an amphiphilic vancomycin aglycone derivative inspired by polymyxins: overcoming glycopeptide resistance in Gram-positive and Gram-negative bacteria in synergy with teicoplanin in vitro” (Scientific Reports, 2022).
Where “and” joins values, the source holds several entries; their conditions need not be identical. Equal values may be shown once. Where a name gives a salt, the structure may show the parent alone. Read-outs that look alike come from different tables or passages of the source.

How the values were obtained:
Caco-2 cells [1] = experiment: MTT cytotoxicity (cell viability); format: cell-based, human
Protocol: (§1) Human Caco-2 intestinal epithelial cells were obtained from European Collection of Cell Cultures (ECACC, UK) and grown routinely in Dulbecco’s Minimum Essential Medium (DMEM), supplemented with 10% fetal bovine serum (FBS), 1% non-essential amino acid and 1% penicillin–streptomycin solution.
(§2) In cell viability experiments, 1 × 10^4 hCMEC/D3 or Caco-2 cells/well were seeded on 96-weel plates. After 24 h of incubation, cells were treated with test solutions in different concentrations. The stock solution of the test molecule was dissolved in DMSO and further diluted with cell culture medium to prepare test solutions. […] The control group received culture medium. Cells were incubated with the test solutions for 72 h at 37 °C in an atmosphere of 5% CO2, and test solutions were replaced with 0.05 mg/ml 3-(4,5-dimethylthiazol-2-yl)-2,5-diphenyltetrazolium bromide (MTT) solutions prepared in PBS. Cells were incubated with MTT solutions for 4 h at 37 °C and the formed dark blue formazan crystals were dissolved in acidic isopropanol (isopropanol: 1.0 N hydrochloric acid = 25:1). The absorbance was measured at 570 nm against a 690 nm reference wavelength with a Thermo Fisher Multiskan Go microplate reader (Thermo Fisher, Waltham, MA, USA). Cell viability was expressed as the percentage of the untreated control and IC50 values were calculated by GraphPad Prism 7 software (GraphPad Software Inc., San Diego, CA, USA).

hCMEC/D3 cells [2] = experiment: MTT cytotoxicity (cell viability); format: cell-based, human
Protocol: (§3) The human immortalized hCMEC/D3 cells (Merck KGaA, Darmstadt, Germany, Cat. # SCC066) were cultured in EndoGRO-MV Complete Culture Media (supplemented with the components of the kit and fibroblast growth factor 2 (FGF-2) at 1 ng/mL final concentration).
as §2

[3] = test system: Staphylococcus aureus MSSA ATCC 29213; experiment: Antibacterial activity (MIC); format: cell-based
Protocol: (§4) The routine antibacterial evaluations were carried out as it was described in our previous publication. Antimicrobial synergy was determined by evaluating the fractional inhibitory concentration (FIC) index and was characterized by a conventional checkerboard assay. Bacteria grown to mid-logarithmic phase in MHB were pre-incubated with serially diluted concentrations of teicoplanin or vancomycin and compound 14. The sum of the FICs (ΣFIC) was calculated with the equation ΣFIC = FICA + FICB = (CA/MICA) + (CB/MICB), where MICA and MICB are the MICs of antimicrobial A and B alone, respectively, and CA and CB are the inhibitory concentrations of the drugs when combined, respectively. Synergy was defined as a ΣFICs ≤ 0.5 and additive activity was defined as a ΣFICs > 0.5 ≤ 1.0.

[4] = test system: Enterococcus faecalis ATCC 29212; experiment: Antibacterial activity (MIC); format: cell-based; settings: for MIC: ATCC29212
Protocol: as §4

[5] = test system: Staphylococcus epidermidis ATCC 35984 biofilm; experiment: Antibacterial activity (MIC); format: cell-based
Protocol: as §4

[6] = test system: Acinetobacter baumannii ATCC BAA1605; experiment: Antibacterial activity (MIC); format: cell-based
Protocol: as §4

[7] = test system: Escherichia coli ATCC 25218; experiment: Antibacterial activity (MIC); format: cell-based; settings: ATCC25218
Protocol: as §4

[8] = test system: Enterococcus faecalis ATCC 51299 VanB; experiment: Antibacterial activity (MIC); format: cell-based
Protocol: as §4

[9] = test system: Pseudomonas aeruginosa ATCC 27853; experiment: Antibacterial activity (MIC); format: cell-based; settings: ATCC27853
Protocol: as §4

[10] = test system: Klebsiella pneumoniae ST258 clone K 160/09; experiment: Antibacterial activity (MIC); format: cell-based
Protocol: as §4

[11] = test system: Bacillus subtilis ATCC 6633; experiment: Antibacterial activity (MIC); format: cell-based; settings: ATCC6633
Protocol: as §4

[12] = test system: Staphylococcus aureus MRSA ATCC 33591; experiment: Antibacterial activity (MIC); format: cell-based
Protocol: as §4

[13] = test system: Staphylococcus epidermidis mecA; experiment: Antibacterial activity (MIC); format: cell-based
Protocol: as §4

[14] = test system: Enterococcus faecalis 15376 VanA; experiment: Antibacterial activity (MIC); format: cell-based
Protocol: as §4

[15] = test system: Acinetobacter baumannii ATCC BAA1605; experiment: Checkerboard assay, combined susceptibility (FIC index); format: cell-based; settings: for MIC of antibiotic in comb.: antibiotic combined with 14; for MIC of antibiotic alone: checkerboard
Protocol: (§5) To determine the activity profile of teicoplanin and vancomycin in combination with compound 14, combined susceptibility tests were perfomed against […] Gram negative strains including Escherichia coli, Pseudomonas aeruginosa, Acinetobacter baumannii and Klebsiella pneumoniae bacteria. The combined effects of compound 14 and the glycopeptide antibiotics were determined by conventional checkerboard assays (images of the chequerboard assay for synergistic combinations are shown in Supplementary Information S1).
as §4

[16] = test system: Escherichia coli ATCC 25218; experiment: as above; format: cell-based; settings: for MIC of antibiotic in comb.: antibiotic combined with 14; for MIC of antibiotic alone: checkerboard
Protocol: as §5, §4

[17] = test system: Pseudomonas aeruginosa ATCC 27853; experiment: as above; format: cell-based; settings: for MIC of antibiotic in comb.: antibiotic combined with 14; for MIC of antibiotic alone: checkerboard
Protocol: as §5, §4

[18] = test system: Klebsiella pneumoniae ST258 clone K 160/09; experiment: as above; format: cell-based; settings: for MIC of antibiotic in comb.: antibiotic combined with 14
Protocol: as §5, §4

Caco-2 cells [19] = experiment: MTT cytotoxicity of combinations, checkerboard configuration; format: cell-based, human; settings: teicoplanin : compound 14 32:2 µg/mL
Protocol: as §1
as §2, with “in PBS. […] The absorbance” for “in PBS. Cells were incubated with MTT solutions for 4 h at 37 °C and the formed dark blue formazan crystals were dissolved in acidic isopropanol (isopropanol: 1.0 N hydrochloric acid = 25:1). The absorbance”, “CA, USA). […]” for “CA, USA).”

hCMEC/D3 cells [20] = experiment: as above; format: cell-based, human
Protocol: as §3
as §2, with “CA, USA). […]” for “CA, USA).”

[21] = MTT cytotoxicity (cell viability); format: cell-based, human; settings: human; Caco-2 cells, MTT, 72 h
Protocol: as §1, §2

[22] = between 0.082 and 200 µM (0.155–375.94 µg/mL)

Teicoplanin
cytotoxic effect (Caco-2 cells [1]; [22]): did not show cytotoxic effect
cytotoxic effect (hCMEC/D3 cells [2]; [22]): did not show cytotoxic effect
MIC ([3]; Staphylococcus aureus MSSA ATCC 29213): 0.5 µg/mL
MIC ([4]; Enterococcus faecalis): 1 µg/mL
MIC ([5]; Staphylococcus epidermidis ATCC 35984 biofilm): 4 µg/mL
MIC ([6]; Acinetobacter baumannii ATCC BAA1605): 128 µg/mL
MIC ([7]; Escherichia coli): 256 µg/mL
MIC ([8]; Enterococcus faecalis ATCC 51299 VanB): 0.5 µg/mL
MIC ([9]; Pseudomonas aeruginosa): 256 µg/mL
MIC ([10]; Klebsiella pneumoniae ST258 clone K 160/09): 256 µg/mL
MIC ([11]; Bacillus subtilis): 0.5 µg/mL
MIC ([12]; Staphylococcus aureus MRSA ATCC 33591): 0.5 µg/mL
MIC ([13]; Staphylococcus epidermidis mecA): 16 µg/mL
MIC ([14]; Enterococcus faecalis 15376 VanA): 256 µg/mL
MIC of antibiotic in comb. [15]: 32 µg/mL
MIC of antibiotic alone [15]: 128 µg/mL
MIC of antibiotic in comb. [16]: 2 µg/mL
MIC of antibiotic alone [16]: 256 µg/mL
MIC of antibiotic in comb. [17]: 32 µg/mL
MIC of antibiotic alone [17]: 256 µg/mL
MIC of antibiotic in comb. [18]: 256 µg/mL
MIC of antibiotic alone ([18]; checkerboard): 256 µg/mL

CCCCCCCCCC(=O)N[C@H](CC(C)C)C(=O)N[C@H]1C(=O)N[C@@H](CC(N)=O)C(=O)N[C@H]2C(=O)N[C@H]3C(=O)N[C@H](C(=O)N[C@H](C(=O)NCCN)c4cc(OCCN)cc(OCCN)c4-c4cc3ccc4OCCN)[C@H](O)c3ccc(c(Cl)c3)Oc3cc2cc(c3OCCN)Oc2ccc(cc2Cl)[C@H]1O [Compound 14, Tetraaminoethyl N-decanoyl norvancomycin aglycone aminoethyl amide trifluoroacetate salt]
toxicity of combination (Caco-2 cells [19]): not toxic
IC50 (Caco-2 cells [1]; MTT, 72 h): > 100 µM
IC50 (cytotoxicity) (Caco-2 cells [1]; MTT, 72 h): > 206.86 µg/mL
IC50 (hCMEC/D3 cells [2]; MTT, 72 h): 56.2 ± 7.74 µM
IC50 (cytotoxicity) (hCMEC/D3 cells [2]; MTT, 72 h): 116.29 ± 16 µg/mL
MIC ([3]; Staphylococcus aureus MSSA ATCC 29213, read-out: MIC): 8 µg/mL
MIC ([4]; Enterococcus faecalis ATCC 29212, read-out: MIC): 16 µg/mL
times less active than vancomycin (MIC ratio) ([4]; vancomycin sensitive E. faecalis ATCC 29212): 16 times
MIC ([5]; ATCC35984, Staphylococcus epidermidis ATCC 35984 biofilm, read-out: MIC): 4 µg/mL
MIC ([6]; ATCCBAA1605, Acinetobacter baumannii ATCC BAA1605, read-out: MIC): 128 µg/mL
MIC ([7]; Escherichia coli ATCC 25218, read-out: MIC): 128 µg/mL
MIC ([8]; ATCC51299, Enterococcus faecalis ATCC 51299 VanB, read-out: MIC): 32 µg/mL
MIC ([9]; Pseudomonas aeruginosa ATCC 27853, read-out: MIC): 128 µg/mL
MIC ([10]; Klebsiella pneumoniae ST258 clone K 160/09, read-out: MIC): 256 µg/mL
MIC ([11]; Bacillus subtilis ATCC 6633, read-out: MIC): 4 µg/mL
MIC ([12]; Staphylococcus aureus MRSA ATCC 33591, read-out: MIC): 8 µg/mL
MIC ([13]; Staphylococcus epidermidis mecA, read-out: MIC): 2 µg/mL
MIC ([14]; Enterococcus faecalis 15376 VanA, read-out: MIC): 8 µg/mL
times more potent than vancomycin (MIC ratio) ([14]; resistant VanA E. faecalis): 32 times
FIC index ([15]; 14 combined with teicoplanin): 0.2656
FIC index ([15]; 14 combined with vancomycin): 0.75
MIC ([15]; ATCCBAA1605, checkerboard, read-out: MIC of 14 alone): 128 µg/mL
MIC of 14 in comb. ([15]; combined with teicoplanin): 2 µg/mL
MIC of 14 in comb. ([15]; combined with vancomycin): 32 µg/mL
FIC index ([16]; 14 combined with teicoplanin): 0.2578
FIC index ([16]; 14 combined with vancomycin): 0.5078
MIC ([16]; ATCC25218, checkerboard, read-out: MIC of 14 alone): 256 µg/mL
MIC of 14 in comb. ([16]; combined with teicoplanin): 32 µg/mL
MIC of 14 in comb. ([16]; combined with vancomycin): 64 µg/mL
FIC index ([17]; 14 combined with teicoplanin): 0.375
FIC index ([17]; 14 combined with vancomycin): 0.5625
MIC ([17]; ATCC27853, checkerboard, read-out: MIC of 14 alone): 256 µg/mL
MIC of 14 in comb. ([17]; combined with teicoplanin): 32 µg/mL
MIC of 14 in comb. ([17]; combined with vancomycin): 64 µg/mL
Combined effect ([18]; 14 combined with teicoplanin): neither synergy nor additive activity and None
Combined effect ([18]; 14 combined with vancomycin): neither synergy nor additive activity and None
MIC ([18]; checkerboard, read-out: MIC of 14 alone): 256 µg/mL
MIC of 14 in comb. ([18]; combined with teicoplanin): 256 µg/mL
MIC of 14 in comb. ([18]; combined with vancomycin): 256 µg/mL
cell viability (hCMEC/D3 cells [20]; teicoplanin : compound 14 2:32 µg/mL, percentage of untreated control): 81.4%
toxicity of combination (hCMEC/D3 cells [20]; teicoplanin : compound 14 32:2 µg/mL): not toxic

CN[C@H](CC(C)C)C(=O)N[C@H]1C(=O)N[C@@H](CC(N)=O)C(=O)N[C@H]2C(=O)N[C@H]3C(=O)N[C@H](C(=O)N[C@H](C(=O)O)c4cc(O)cc(O)c4-c4cc3ccc4O)[C@H](O)c3ccc(c(Cl)c3)Oc3cc2cc(c3O[C@@H]2O[C@H](CO)[C@@H](O)[C@H](O)[C@H]2O[C@H]2C[C@](C)(N)[C@H](O)[C@H](C)O2)Oc2ccc(cc2Cl)[C@H]1O [Vancomycin]
IC50 at 72 h [21]: 54.2 µM and 78.7 µg/mL
MIC ([3]; Staphylococcus aureus): 0.5 µg/mL
MIC ([4]; Enterococcus faecalis): 1 µg/mL
MIC ([5]; Staphylococcus epidermidis, ATCC35984): 2 µg/mL
MIC ([6]; Acinetobacter baumannii, ATCCBAA1605): 128 µg/mL
MIC ([7]; Escherichia coli): 256 µg/mL
MIC ([8]; Enterococcus faecalis, ATCC51299): 128 µg/mL
MIC ([9]; Pseudomonas aeruginosa): 256 µg/mL
MIC ([10]; Klebsiella pneumoniae): 256 µg/mL
MIC ([11]; Bacillus subtilis): 0.5 µg/mL
MIC ([12]; Staphylococcus aureus): 0.5 µg/mL
MIC ([13]; Staphylococcus epidermidis): 4 µg/mL
MIC ([14]; Enterococcus faecalis, 15376VANA): 256 µg/mL
MIC of antibiotic in comb. [15]: 64 µg/mL
MIC of antibiotic alone [15]: 128 µg/mL
MIC of antibiotic in comb. [16]: 2 µg/mL
MIC of antibiotic alone [16]: 256 µg/mL
MIC of antibiotic in comb. [17]: 16 µg/mL
MIC of antibiotic alone [17]: 256 µg/mL
MIC of antibiotic in comb. [18]: 256 µg/mL
MIC of antibiotic alone ([18]; checkerboard): 256 µg/mL
